This is an account of results in patent publication US8318504B2, “MRP2 efflux pathway prognostic method” (priority 2009, dated 2012).

One data set addresses T1, OATP1B1 (Homo sapiens, UniProt Q9Y6L6).
T1 construct: expressed in transfected cells; host or cells: CHO cells (stably transfected; Treiber et al. 2007)
T1 sequence (Q9Y6L6 1-691): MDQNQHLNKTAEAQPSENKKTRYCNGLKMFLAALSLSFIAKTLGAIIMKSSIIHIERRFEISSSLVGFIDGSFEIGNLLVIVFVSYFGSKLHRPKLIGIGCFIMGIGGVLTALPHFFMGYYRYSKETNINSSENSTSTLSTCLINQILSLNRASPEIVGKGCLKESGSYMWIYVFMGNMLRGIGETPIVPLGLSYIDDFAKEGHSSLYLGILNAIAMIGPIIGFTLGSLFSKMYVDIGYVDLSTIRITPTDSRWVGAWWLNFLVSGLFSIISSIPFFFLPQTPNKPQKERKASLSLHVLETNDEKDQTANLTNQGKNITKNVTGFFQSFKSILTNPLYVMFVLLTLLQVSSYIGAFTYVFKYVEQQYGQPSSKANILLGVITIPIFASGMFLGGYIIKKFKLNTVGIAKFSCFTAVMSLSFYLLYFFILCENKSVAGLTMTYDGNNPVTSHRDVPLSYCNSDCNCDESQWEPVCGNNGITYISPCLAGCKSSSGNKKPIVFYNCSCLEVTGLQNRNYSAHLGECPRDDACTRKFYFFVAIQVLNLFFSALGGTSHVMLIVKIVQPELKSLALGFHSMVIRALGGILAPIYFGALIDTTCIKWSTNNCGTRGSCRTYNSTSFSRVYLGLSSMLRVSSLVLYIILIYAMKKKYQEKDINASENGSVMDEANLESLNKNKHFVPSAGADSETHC
As to the kind of experiment: Uptake of CLF into CHO cells expressing OATP1B1. The following applies: 1 μmol/L CLF, 1 or 5 minutes. Format: cell-based. As to the method: (§1) cDNA for human NTCP [Hagenbuch et al., J Clin Invest 1994 March; 93(3): 1326-1331] was cut with EcoRV and HindI and the coding region ligated into pcDNA5/FRT (Invitrogen, Life-Technologies, Carlsbad, Calif.). CHO FlpIn cells (Invitrogen, Life-Technologies) were transfected with the resulting construct using Lipofectamine® 2000 (Invitrogen, Life-Technologies). Stably transfected cells were selected with 550 μg Hygromycin-B in HAM-F12 medium (Gibco, Invitrogen, Life-Technologies). Transfected cells were cloned with the limiting dilution method. […] To further characterize the cloned cells, immunofluorescence localization of NTCP using a polyclonal antibody against NTCP [Kullak-Ublick G et al., Gastroenterology 1997 October; 113(4):1295-1305] was performed as described by Huber R D et al. [Am J Physiol Cell Physiol 2007 February; 292(2):[…]-[…]]. CHO cells expressing OATP1B1, OATP1B3 and OATP2B1 were described previously [Treiber et al., DMD 35:1400-1407, 2007]. […] After complete solubilization, 1.5 ml was used to measure fluorescence in a Perkin-Elmer LS-5 luminescence-spectrometer set at λexe 486 nm (slit 10 nm) and λem 520 nm (slit 5 nm). Protein was determined with the bicinchoninic acid method using a kit from Interchim (Montfuçon, France). […]

The next data set concerns the target T2, OATP2B1 (Homo sapiens, UniProt O94956).
T2 construct: expressed in transfected cells; host or cells: CHO cells (stably transfected; Treiber et al. 2007)
T2 sequence (O94956 1-709): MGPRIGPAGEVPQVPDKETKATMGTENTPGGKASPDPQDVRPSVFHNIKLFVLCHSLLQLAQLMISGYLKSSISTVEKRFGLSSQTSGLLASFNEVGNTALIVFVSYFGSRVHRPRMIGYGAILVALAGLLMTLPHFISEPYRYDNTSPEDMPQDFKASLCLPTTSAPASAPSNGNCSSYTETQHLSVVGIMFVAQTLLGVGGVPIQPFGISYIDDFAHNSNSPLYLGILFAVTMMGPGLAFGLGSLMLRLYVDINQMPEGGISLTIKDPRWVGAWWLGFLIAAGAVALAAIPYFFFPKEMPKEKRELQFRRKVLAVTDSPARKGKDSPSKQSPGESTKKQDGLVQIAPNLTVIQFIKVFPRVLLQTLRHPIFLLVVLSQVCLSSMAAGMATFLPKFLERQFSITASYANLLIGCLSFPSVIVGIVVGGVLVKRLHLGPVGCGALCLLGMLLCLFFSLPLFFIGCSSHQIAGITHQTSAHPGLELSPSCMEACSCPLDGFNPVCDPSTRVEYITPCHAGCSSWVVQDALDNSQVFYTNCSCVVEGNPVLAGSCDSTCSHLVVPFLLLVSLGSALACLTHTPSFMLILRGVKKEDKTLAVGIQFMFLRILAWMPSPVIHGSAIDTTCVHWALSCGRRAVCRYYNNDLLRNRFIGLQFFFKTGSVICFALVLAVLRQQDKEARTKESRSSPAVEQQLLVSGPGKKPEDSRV
The data set can be described thus: Uptake of CLF into CHO cells expressing OATP2B1. In kind it is cell-based. Conditions: 1 μmol/L CLF, 1 or 5 minutes. As to the method:
as §1

Consider `CC(CCC(=O)NC(CCCCNC(=S)Nc1ccc(-c2c3ccc(=O)cc-3oc3cc(O)ccc23)c(C(=O)O)c1)C(=O)O)C1CCC2C3C(O)CC4CC(O)CCC4(C)C3CC(O)C12C` (centres unmarked) [CLF, cholyl lysyl fluorescein], for which, on OATP1B1, the “uptake of CLF into OATP1B1 cells” value is recorded as “very weak but consistent”. Moreover, the “uptake of CLF into OATP2B1 cells” value on OATP2B1 is recorded as “no uptake”.
